Entries after “also recorded” stand apart in the source; their conditions may differ. Read-outs that look alike come from different tables or passages of the source. Square brackets hold non-standard residues; d marks the D form. Peptide text beside a SMILES is read from it. * marks the point of attachment. DOTA = O=C(O)CN1CCN(CC(=O)O)CCN(CC(=O)*)CCN(CC(=O)O)CC1; 2Thi = N[C@@H](Cc1cccs1)C(=O)O; Nle = CCCC[C@H](N)C(=O)O; AEEA = NCCOCCOCC(=O)O; βAla = NCCC(=O)O
Key:
[1] = 3D fused PET-CT images; male rat
Experimental: The study included nine AR 42 J tumor-bearing nude rats. We grouped all rats according to PET tracers (B, ^68Ga-BZH3 and R, ^68Ga-RGD4), used in dynamic PET scanning, as noted in Table 1. Dynamic PET studies were performed for 60 min after the intravenous application of 10 to 30 MBq ^68Ga-RGD4 or 20 to 40 MBq ^68Ga-BZH3, using a 28-frame protocol (ten frames of 30 s, five frames of 60 s, five frames of 120 s, and eight frames of 300 s). Two animals can be examined in parallel per scanning by a homemade injector (Figure 2). A dedicated PET-CT system (Biograph™ mCT, 128 S/X, Siemens Co, Erlangen, Germany) with an axial field of view of 21.6 cm with TrueV, operated in a three-dimensional mode, was used for all animal studies. The system provides the simultaneous acquisition of 369 transverse slices with a slice thickness of 0.6 mm. The animals were positioned in the axial plane of the system to maintain the best resolution in the center of the system. […] The SUV images were used for all further quantitative evaluations.
Dynamic PET data were evaluated using the software package PMOD (provided courtesy of PMOD Technologies Ltd., Zuerich, Switzerland). Areas with enhanced tracer uptake on transaxial, coronal, and sagittal images were evaluated visually. […] A detailed quantitative evaluation of tracer kinetics requires the use of compartmental modeling. […]

[2] = Dynamic PET, tumor uptake (SUV) in AR42J tumor-bearing nude rats; format: in vivo, rat; conditions: rat, in vivo, iv, i.v. 20 to 40 MBq (BZH3, n = 5), 10 to 30 MBq (RGD4, n = 4), nude rats, read-out: SUV (standardized uptake value) in tumor
Source text: (§1) Irregular regions of interest were drawn manually.

AR42J tumor [3] = experiment: as above; format: in vivo, rat; conditions: for SUV (standardized uptake value) in tumor: 55 to 60 min post-injection, i.v. 20 to 40 MBq (BZH3, n = 5), 10 to 30 MBq (RGD4, n = 4), nude rats
Source text: as §1

[4] = test system: gastrointestinal stromal tumors; conditions: ref [15], cited from earlier work
Source text: Bombesin and the two mammalian bombesin-like peptides, […] regulate many biologic response processes through activation of distinct receptor subtypes, including modulation of smooth muscle contraction, secretion of neuropeptides and hormones, as well as stimulation of cell growth. Activation of neuromedin B (BB1) receptors has been reported in various human cancers.

AR42J tumor [5] = conditions: for VB (vessel density, fractional blood volume) / K1 (transport into the cell; associated with receptor binding) / RBP (receptor binding potential) / k2 (displacement from the receptor) / k3 (cellular internalisation) / k4 (externalization): AR42J tumor-bearing nude rats, n = 5 (BZH3), n = 4 (RGD4); for VB (vessel density, fractional blood volume): dynamic PET 60 min, i.v.
Experimental: The AR42J cell line, derived from a rat exocrine pancreas neuroendocrine tumor, was used. Cells were obtained from the European Collection of Cell Cultures and were grown in RPMI 1640 medium supplemented with 2 mmol/L glutamine and 10% fetal calf serum. Adherent cells were dislodged with trypsin/ethylenediaminetetraacetic acid (0.02%: 0.05%, w/v). For PET-studies, 5 × 10^6 cells in 200 μl RPMI without supplements were inoculated subcutaneously in the right hind leg of Wistar rats.
The study included nine AR 42 J tumor-bearing nude rats. We grouped all rats according to PET tracers (B, ^68Ga-BZH3 and R, ^68Ga-RGD4), used in dynamic PET scanning, as noted in Table 1. Dynamic PET studies were performed for 60 min after the intravenous application of 10 to 30 MBq ^68Ga-RGD4 or 20 to 40 MBq ^68Ga-BZH3, using a 28-frame protocol (ten frames of 30 s, five frames of 60 s, five frames of 120 s, and eight frames of 300 s). Two animals can be examined in parallel per scanning by a homemade injector (Figure 2). A dedicated PET-CT system (Biograph™ mCT, 128 S/X, Siemens Co, Erlangen, Germany) with an axial field of view of 21.6 cm with TrueV, operated in a three-dimensional mode, was used for all animal studies. The system provides the simultaneous acquisition of 369 transverse slices with a slice thickness of 0.6 mm. The animals were positioned in the axial plane of the system to maintain the best resolution in the center of the system. All PET images were attenuation-corrected and an image matrix of 400 × 400 pixels was used for iterative image reconstruction (voxel size 1.565 × 1.565 × 0.6 mm) based on the syngo MI PET/CT 2009C software version. After the end of the dynamic series an ultrahigh resolution CT with 85 mA, 80 kV and a pitch of 0.85 cm was performed for attenuation correction of the acquired dynamic emission data. The reconstructed images were converted to SUV images based on the formula [24]: SUV = Tissue concentration (becquerel per gram)/[injected dose ([…]))/body weight (gram)]. The SUV 55 to 60 min post-injection was used for the assessment of both tracers. The SUV images were used for all further quantitative evaluations.
Dynamic PET data were evaluated using the software package PMOD (provided courtesy of PMOD Technologies Ltd., Zuerich, Switzerland). Areas with enhanced tracer uptake on transaxial, coronal, and sagittal images were evaluated visually. A volume of interest consists of several regions of interest over the target area. Irregular regions of interest were drawn manually. A detailed quantitative evaluation of tracer kinetics requires the use of compartmental modeling. A two-tissue-compartment model was used to evaluate the dynamic studies.
In animals, a partial volume correction must be applied to the data due to the small size of the input and tumor volumes of interest (VOIs). Herein, the recovery coefficient was 0.85 for a diameter of 8 mm and 0.32 for a diameter of 3 mm based on phantom measurements as well as the recent parameter settings used with the reconstruction software. For the input function the mean values of the VOI data obtained from the heart were used. We used a preprocessing tool, which allowed a fit of the input curve by a sum of up to three decaying exponentials. The learning-machine two-tissue-compartment model was used for the fitting and provided five parameters: the transport parameters for tracer into and out of the cell, K1 and k2, the parameters for phosphorylation and dephosphorylation of intracellular tracer, k3 and k4, and the fractional blood volume, also called vessel density (VB), which reflects the amount of blood in the VOI. Following compartment analysis, we calculated the global influx of tracer from the compartment data using the formula: influx = (K1 × k3)/(k2 + k3). […] The model parameters were accepted when K1 - k4 was less than 1 and VB exceeded 0. The unit for the rate constants K1 to k4 was 1/min.

gliomas = conditions: compared with ^68Ga-DOTATOC in meningiomas, ref [47]; cited from earlier work
Source text: Concerning the ^68Ga-BZH3 kinetics, k1 is a parameter that reflects the receptor binding and k3 is a parameter that reflects the internalization of the tracer.

[6] = test system: gastrin-releasing peptide receptor (GRP-r, also known as BB2); conditions: background statement; no reference given; cited from earlier work
Source text: (§2) Objectives Receptor scintigraphy gains more interest for diagnosis and treatment of tumors, in particular for neuroendocrine tumors (NET). We used a pan-Bombesin analog, the peptide DOTA-PEG2-[D-tyr^6, β-Ala^11, Thi^13, Nle^14] BN(6-14) amide (BZH3). BZH3 binds to at least three receptor subtypes: the BB1 (Neuromedin B), BB2 (Gastrin-releasing peptide, GRP), and BB3. Imaging of ανβ3 integrin expression playing an important role in angiogenesis and metastasis was accomplished with a ^68Ga-RGD tetramer. […] We have reported ^68Ga-labeled bombesin may be helpful for diagnostic reasons in a subgroup of patients ...

[7] = test system: bombesin receptor subtype (BB3); conditions: background statement; no reference given; cited from earlier work
Source text: as §2

BB1 (Neuromedin B) = conditions: background statement; no reference given; cited from earlier work
Source text: as §2

[8] = median, between tracers P 0.05*

CCCC[C@H](NC(=O)[C@H](Cc1cccs1)NC(=O)[C@H](Cc1c[nH]cn1)NC(=O)CCNC(=O)[C@@H](NC(=O)[C@H](C)NC(=O)[C@H](Cc1c[nH]c2ccccc12)NC(=O)[C@H](CCC(N)=O)NC(=O)[C@@H](Cc1ccc(O)cc1)NC(=O)COCCOCCNC(=O)COCCOCCNC(=O)CN1CCN(CC(=O)O)CCN(CC(=O)O)CCN(CC(=O)O)CC1)C(C)C)C(N)=O [^68Ga-BZH3, DOTA-PEG2-[D-Tyr^6 -β-Ala^11 -Thi^13 -Nle^14]BN(6-14) amide, metal not drawn] ({DOTA-AEEA-AEEA}-[dY]QWAV[βAla]H[2Thi][Nle]-NH2)
tracer uptake in other sites [1]: liver, kidney, urinary bladder, and testicles | SUV ([2]; mean, 55 to 60 min post-injection): 1.08 SUV | SUV ([2]; median, 55 (56) to 60 min post-injection, between tracers P 0.8065): 1.19 SUV | tumor visualisation (AR42J tumor [3]; 3D fused PET-CT image, tumor in lower leg): clearly showed enhanced ^68Ga-BZH3 uptake in the tumor area in the lower leg | tumor uptake compared with the other tracer (AR42J tumor [3]; ^68Ga-BZH3 vs ^68Ga-RGD4, AR42J tumor-bearing nude rats): generally higher than ^68Ga-RGD4 uptake; also recorded: higher than that of ^68Ga-RGD4 | SUV (standardized uptake value) in tumor (AR42J tumor [3]; maximum): 1.2884 | SUV (standardized uptake value) in tumor (AR42J tumor [3]; minimum): 0.8628 | uptake compared with ^18F-FDG [4]: lower than ^18F-FDG | uptake in gastrointestinal stromal tumors ([4]; subgroup of patients): enhanced ^68Ga-BZH3 uptake in a subgroup of patients with gastrointestinal stromal tumors | FD, VB, K1 and RBP compared between tracers (AR42J tumor [5]; ^68Ga-BZH3 vs ^68Ga-RGD tetramer): generally higher than the corresponding values for the ^68Ga-RGD tetramer | VB (vessel density, fractional blood volume) (AR42J tumor [5]; maximum): 0.1646 | K1 (transport into the cell; associated with receptor binding) (AR42J tumor [5]; maximum): 0.4862 min⁻¹ | RBP (receptor binding potential) (AR42J tumor [5]; maximum): 0.1202 | k2 (displacement from the receptor) (AR42J tumor [5]; maximum): 0.6103 min⁻¹ | k3 (cellular internalisation) (AR42J tumor [5]; maximum): 0.2005 min⁻¹ | k4 (externalization) (AR42J tumor [5]; maximum): 0.1746 min⁻¹ | VB (vessel density, fractional blood volume) (AR42J tumor [5]; mean): 0.1037 | K1 (transport into the cell; associated with receptor binding) (AR42J tumor [5]; mean): 0.3717 min⁻¹ | RBP (receptor binding potential) (AR42J tumor [5]; mean): 0.0765 | k2 (displacement from the receptor) (AR42J tumor [5]; mean): 0.4808 min⁻¹ | k3 (cellular internalisation) (AR42J tumor [5]; mean): 0.1235 min⁻¹ | k4 (externalization) (AR42J tumor [5]; mean): 0.0986 min⁻¹ | VB (vessel density, fractional blood volume) (AR42J tumor [5]; [8]): 0.0903 | RBP (receptor binding potential) (AR42J tumor [5]; median, between tracers P 0.0275*): 0.0607 | K1 (transport into the cell; associated with receptor binding) (AR42J tumor [5]; [8]): 0.3506 min⁻¹ | k4 (externalization) (AR42J tumor [5]; [8]): 0.1005 min⁻¹ | k2 (displacement from the receptor) (AR42J tumor [5]; median, between tracers P 0.4624): 0.5216 min⁻¹ | k3 (cellular internalisation) (AR42J tumor [5]; median, between tracers P 0.8065): 0.1177 min⁻¹ | VB (vessel density, fractional blood volume) (AR42J tumor [5]; minimum): 0.0603 | K1 (transport into the cell; associated with receptor binding) (AR42J tumor [5]; minimum): 0.3055 min⁻¹ | RBP (receptor binding potential) (AR42J tumor [5]; minimum): 0.0506 | k2 (displacement from the receptor) (AR42J tumor [5]; minimum): 0.2768 min⁻¹ | k3 (cellular internalisation) (AR42J tumor [5]; minimum): 0.0580 min⁻¹ | k4 (externalization) (AR42J tumor [5]; minimum): 0.0493 min⁻¹ | internalization (gliomas): higher internalization | receptor binding (gliomas): lower receptor binding

Bombesin [reference compound]
binding/affinity for BB2 [6]: high affinity | binding/affinity for BB3 [7]: high affinity | binding/affinity for BB1 (BB1 (Neuromedin B)): high affinity

DOTA-PEG2-[D-Tyr^6 -β-Ala^11 -Thi^13 -Nle^14 ]BN(6-14) amide [BZH3, pan-Bombesin analog, unlabelled precursor]
binding/affinity for BB2 [6]: binds | binding/affinity for BB3 [7]: binds | binding/affinity for BB1 (BB1 (Neuromedin B)): binds

From article PMC3292467, “Comparison between ^68Ga-bombesin (^68Ga-BZH3) and the cRGD tetramer ^68Ga-RGD4 studies in an experimental nude rat model with a neuroendocrine pancreatic tumor cell line” (EJNMMI Research, 2011)
